Test results taken from US20130183239A1, “ISOTOPIC CARBON CHOLINE ANALOGS” (IMPERIAL COLLEGE, priority 2010, published 2013).
Read-outs that look alike come from different tables or passages of the source.

Legend:
[1] = mouse, in vivo
Procedure: (§1) Radiolabeled metabolites from plasma and tissues were quantified using a method adapted from Smith G, Zhao Y, Leyton J, et al. Radiosynthesis and pre-clinical evaluation of [(18)F]fluoro-[1,2-(2)H(4)]choline. Nucl Med Biol. 2011; 38:39-51. Briefly, tumor-bearing mice under terminal anaesthesia were administered a bolus i.v. injection of one of the following radiotracers: ^11C-choline, ^11C-D4-choline (˜18.5 MBq) or ^18F-D4-choline (˜3.7 MBq), and sacrificed by exsanguination via cardiac puncture at 2, 15, 30 or 60 min post radiotracer injection. For automated radiosynthesis methodology, see Example 22. Tumor, kidney and liver samples were immediately snap-frozen in liquid nitrogen. Aliquots of heparinized blood were rapidly centrifuged (14000 g, 5 min, 4° C.) to obtain plasma. Plasma samples were subsequently snap-frozen in liquid nitrogen and kept on dry ice prior to analysis.
(§2) For analysis, samples were thawed and kept at 4° C. immediately before use. To ice cold plasma (200 μl) was added ice cold methanol (1.5 mL) and the resulting suspension centrifuged (14000 g; 4° C.; 3 min). The supernatant was then decanted and evaporated to dryness on a rotary evaporator (bath temperature, 40° C.), then resuspended in HPLC mobile phase (Solvent A: acetonitrile/water/ethanol/acetic acid/1.0 M ammonium acetate/0.1 M sodium phosphate [800/127/68/2/3/10]; 1.1 mL). Samples were filtered through a hydrophilic syringe filter (0.2 μm filter; Millex PTFE filter, Millipore, Mass., USA) and the sample (˜1 mL) then injected via a 1 mL sample loop onto the HPLC for analysis. Tissues were homogenized in ice-cold methanol (1.5 mL) using an Ultra-Turrax T-25 homogenizer (IKA Werke GmbH and Co. KG, Staufen, Germany) and subsequently treated as per plasma samples.
(§3) Samples were analyzed on an Agilent 1100 series HPLC system (Agilent Technologies, Santa Clara, Calif., USA), configured as described above, using the method of Leyton J, Smith G, Zhao Y, et al. [18F]fluoromethyl-[1, 2-2H4]-choline: a novel radiotracer for imaging choline metabolism in tumors by positron emission tomography. Cancer Res. 2009; 69:7721-7728. A μBondapak C18 HPLC column (Waters, Milford, Mass., USA; […]), stationary phase and a mobile phase comprising of Solvent A (vide supra) and Solvent B (acetonitrile/water/ethanol/acetic acid/1.0 M ammonium acetate/0.1 M sodium phosphate (400/400/68/44/88/10)), delivered at a flow rate of 3 mL/min were used for analyte separation. The gradient was set as follows: 0% B for 5 min; 0% to 100% B in 10 min; 100% B for 0.5 min; 100% to 0% B in 2 min; 0% B for 2.5 min.
(§4) A 2-tissue irreversible compartmental model was employed to fit the TACs, as has been previously established for ^11C-choline (Kenny L M, Contractor K B, Hinz R, et al. Reproducibility of [11C]choline-positron emission tomography and effect of trastuzumab. Clin Cancer Res. Aug. 15 2010; 16(16):4236-4245; and Sutinen E, Nurmi M, Roivainen A, et al. Kinetics of [(11)C]choline uptake in prostate cancer: a PET study. Eur J Nucl Med Mol. Imaging. March 2004; 31(3):317-324). An estimate of the whole blood TAC (wbTAC(t)) was derived from the PET image itself, as described above. […] Therefore it was fitted with a sum of 3 exponentials from the peak on and the fitted function was used as input function in the kinetic modeling (after metabolite correction, see below). […] The pf values were fitted to a sum of two exponentials with the constraint pf(t=0)=1 to obtain the function pf(t).

HCT116 tumors [2] = conditions: mouse, in vivo
Procedure: as §1, §2, §3
^11C-choline, ^11C-D4-choline and ^18F-D4-choline metabolism were measured in HCT116 tumors (FIG. 22).

HCT116 tumors [3] = conditions: HCT116 tumors, dynamic PET
Procedure: Dynamic ^11C-choline, ^11C-D4-choline and ^18F-D4-choline imaging scans were carried out on a dedicated small animal PET scanner (Siemens Inveon PET module, Siemens Medical Solutions USA, Inc., Malvem, Pa., USA) following a bolus i.v. injection in tumor-bearing mice of either ˜3.7 MBq for ^18F studies, or ˜18.5 MBq for ^11C. Dynamic scans were acquired in list mode format over 60 min. The acquired data were then sorted into 0.5 mm sinogram bins and 19 time frames for image reconstruction (4×15 s, 4×60 s, and 11×300 s), which was done by filtered back projection. For input function analysis, data were sorted into 25 time frames for image reconstruction (8×5 s, 1×20 s, 4×40 s, 1×80 s, and 11×300 s). The Siemens Inveon Research Workplace software was used for visualization of radiotracer uptake in the tumor; 30 to 60 min cumulative images of the dynamic data were employed to define 3-dimensional (3D) regions of interest (ROIs). Arterial input function was estimated as follows: a single voxel 3D ROI was manually drawn in the center of the heart cavity using 2 to 5 min cumulative images. Care was taken to minimize ROI overlap with the myocardium. The count densities were averaged for all ROIs at each time point to obtain a time versus radioactivity curve (TAC). Tumor TACs were normalized to injected dose, measured by a VDC-304 dose calibrator (Veenstra Instruments, Joure, The Netherlands), and expressed as percentage injected dose per mL tissue. The area under the TAC, calculated as the integral of % ID/mL from 0-60 min, and the normalized uptake of radiotracer at 60 min (% ID/mL60) were also used for comparisons.
as §4, with “pf(t). The parent whole blood TAC wbTACPAR(t) was then computed by multiplying wbTAC(t) and pf(t) and used as input function to estimate the parameters K1 (mL/cm^3/min), k2 (1/min), k3 (1/min) and Vb (unitless). The steady state net irreversible uptake rate constant Ki (mL/cm^3/min) was calculated from the estimated microparameters as K1k3/(k2+k3).” for “pf(t).”

[4] = system: human melanoma (A375), prostate (PC3-M) and colon (HCT116) cancer cell lines; test: In vitro 18F-D4-choline uptake in cancer cell lines; format: cell-based; conditions: hemicholinium-3 5 mM, 18F-D4-choline uptake, all three cell lines
Procedure: Uptake was measured in vehicle-treated (closed symbols) and hemicholinium-3-treated cells (5 mM; open symbols). Mean values+SEM are shown (n=3). Insert: representative western blot of choline kinase-α expression in the three cell lines. Actin was used as a loading control. Abbreviations: CKα, choline kinase alpha.
Cells (5×10^5) were plated into 6-well plates the night prior to analysis. On the day of the experiment, fresh growth medium, containing 40 μCi ^18F-D4-choline, was added to individual wells. Cell uptake was measured following incubation at 37° C. in a humidified atmosphere of 5% CO2 for 60 min. Plates were subsequently placed on ice, washed 3 times with ice-cold PBS and lysed in RIPA buffer (Thermo Fisher Scientific Inc., Rockford, Ill., USA; 1 mL, 10 min). […] Aliquots were snap-frozen and used for protein determination following radioactive decay using a BCA 96-well plate assay (Thermo Fisher Scientific Inc., Rockford, Ill., USA). Data were expressed as percent of total radioactivity per mg protein. For hemicholinium-3 treatment (5 mM; Sigma-Aldrich), cells were incubated with the compound 30 min prior to addition of radioactivity and for the duration of the uptake time course. […]

[5] = mouse, in vivo; remark: listed apart in the source
Procedure: ^11C-choline, ^11C-D4-choline (˜18.5 MBq) and ^18F-D4-choline (˜3.7 MBq) were each injected via the tail vein of anaesthetized BALB/c nude mice. The mice were maintained under anesthesia and sacrificed by exsanguination via cardiac puncture at 2, 15, 30 or 60 min post radiotracer injection to obtain blood, plasma, heart, lung, liver, kidney and muscle. Tissue radioactivity was determined on a gamma counter (Cobra II Auto-Gamma counter, Packard Biosciences Co, Pangbourne, UK) and decay corrected. Data were expressed as percent injected dose per gram of tissue.
Time course biodistribution was performed in non-tumor-bearing male nude mice with ^11C-choline, ^11C-D4-choline and ^18F-D4-choline tracers.

| liver radioactivity as betaine ([1]; BALB/c nude, 2 min) | plasma radioactivity in the form of betaine ([1]; BALB/c nude, 2 min) | plasma radioactivity in the form of betaine ([1]; BALB/c nude, 15 min) | tumor betaine-to-phosphocholine metabolite ratio increase compared to 18F-D4-choline (HCT116 tumors [2]; BALB/c nude) | increase in the ratio of betaine:phophocholine in comparison to 18F-D4-choline (HCT116 tumors [2]; BALB/c nude, 15 min) | tumor radioactivity corresponding to phosphocholine (HCT116 tumors [2]; BALB/c nude, 15 min) | increase in the ratio of betaine:phophocholine in comparison to 18F-D4-choline (HCT116 tumors [2]; BALB/c nude, 60 min) | tumor betaine radioactivity (HCT116 tumors [2]; BALB/c nude, 60 min) | increase in kidney retention compared to 11C-choline [5] | liver radioactivity as betaine [1] | tumor betaine-to-phosphocholine metabolite ratio increase compared to 18F-D4-choline (HCT116 tumors [2]) | tumor radioactivity corresponding to phosphocholine (HCT116 tumors [2]) | SMILES | tumor tracer kinetics between 30 and 60 min (HCT116 tumors [3]) | decrease in intracellular tracer radioactivity [4] | urinary excretion [5] |
| --- | --- | --- | --- | --- | --- | --- | --- | --- | --- | --- | --- | --- | --- | --- | --- |
| 49.2±7.7% | 12.1±2.6% | 78.6±4.4% | 388% | 388% | 30.5±4.0% | 230% | 28.1±2.9% | – | – | – | – | C[N+](C)([11CH3])CCO [^11C-choline, reference compound] | gradual accumulation | – | – |
| – | – | – | – | – | – | – | – | – | – | – | – | C[N+]1(C)CCOC(O)(c2ccc(-c3ccc(C4(O)C[N+](C)(C)CCO4)cc3)cc2)C1.[Br-].[Br-] (stereo not shown) [hemicholinium-3, reference compound] | – | > 90% | – |
| – | – | – | – | – | – | – | – | 1.8 fold | 24.5±2.1% | 259% | 43.8±1.5% | [2H]C([2H])(O)C([2H])([2H])[N+](C)(C)[11CH3] [^11C-D4-choline, ^11C-[1,2-^2H4]choline] | Slow wash-out of activity | – | trend towards increased urinary excretion |
